Test results reported in PubChem BioAssay AID1745844 (Carcinogenic Potency Database (CPDB), 2022).
Several values for one entry are separate records, joined by “and”; a condition that tells them apart may be missing. Equal values may be shown once. Activity calls are given as the source filed them. No rule for the calls is given here.

Test system: rodent lifetime carcinogenesis bioassay, tumor incidence TD50
Assay: chronic cancer bioassays in animals – CPDB, compiled studies (AID 1745844)

Structure (SMILES): CC(C)NCC(O)c1ccc2ccccc2c1 (centres undefined)
- carcinogen call (mouse, strain CF-1, females, in feed, site: liver, lesion: one or several types, types not named, dosed 78 weeks, study length 78 weeks): negative (inactive)
- TD50 (mouse, strain CF-1, females, in feed, site: lung, lesion: adenoma, dosed 78 weeks, study length 78 weeks): 1300 mg/kg/day (inactive)
- TD50 (mouse, strain CF-1, males, in feed, site: liver, lesion: adenoma, dosed 78 weeks, study length 78 weeks): 1820 mg/kg/day (inactive)
- carcinogen call (mouse, strain CF-1, males, in feed, site: liver, lesion: carcinoma, dosed 78 weeks, study length 78 weeks): negative (inactive)
- TD50 (mouse, strain CF-1, males, in feed, site: lung, lesion: adenoma, dosed 78 weeks, study length 78 weeks): 931 mg/kg/day (inactive)
- TD50 (mouse, strain Not specified, females, in feed, site: thymus gland, lesion: one or several types, types not named, dosed 64 weeks, study length 64 weeks): 408 mg/kg/day
- TD50 (mouse, strain Not specified, males, in feed, site: thymus gland, lesion: one or several types, types not named, dosed 64 weeks, study length 64 weeks): 1930 mg/kg/day

Structure (SMILES): [O-][Br+2]([O-])O
- TD50 (hamster, strain Syrian Golden, males, in drinking water, site: kidney, lesion: renal-cell tumor, dosed 89 weeks, study length 89 weeks): 533 mg/kg/day
- TD50 (mouse, strain B6C3F1, females, in drinking water, site: any site (literature study), lesion: several types, types named in the paper, dosed 78 weeks, study length 104 weeks): 477 mg/kg/day
- TD50 (mouse, strain B6C3F1, females, in drinking water, site: liver, lesion: adenoma, dosed 78 weeks, study length 104 weeks): 1180 mg/kg/day
- TD50 (mouse, strain B6C3F1, females, in drinking water, site: liver, lesion: several types, types named in the paper, dosed 78 weeks, study length 104 weeks): 1710 mg/kg/day
- TD50 (mouse, strain B6C3F1, females, in drinking water, site: lung, lesion: adenoma, dosed 78 weeks, study length 104 weeks): 2030 mg/kg/day
- TD50 (mouse, strain B6C3F1, females, in drinking water, site: lung, lesion: several types, types named in the paper, dosed 78 weeks, study length 104 weeks): 1050 mg/kg/day
- TD50 (mouse, strain B6C3F1, males, in drinking water, site: kidney, lesion: renal-cell carcinoma, dosed 100 weeks, study length 100 weeks): 92.5 mg/kg/day
- TD50 (mouse, strain B6C3F1, males, in drinking water, site: kidney, lesion: several types, types named in the paper, dosed 100 weeks, study length 100 weeks): 53.8 mg/kg/day
- TD50 (mouse, strain Theiller's Original, females, in feed, site: liver, lesion: hemangioma, dosed 80 weeks, study length 80 weeks): 347 mg/kg/day (inactive)
- carcinogen call (mouse, strain Theiller's Original, males, in feed, site: any site (literature study), lesion: malignant tumor, dosed 80 weeks, study length 80 weeks): negative (inactive)
- carcinogen call (mouse, strain Theiller's Original, males, in feed, site: liver, lesion: one or several types, types not named, dosed 80 weeks, study length 80 weeks): negative (inactive)
- TD50 (rat, strain F344/DuCrj, males, in drinking water, site: kidney, lesion: adenocarcinoma, dosed 26 weeks, study length 104 weeks): 79.2 mg/kg/day
- TD50 (rat, strain F344/DuCrj, males, in drinking water, site: kidney, lesion: adenocarcinoma, dosed 39 weeks, study length 104 weeks): 16.9 mg/kg/day
- TD50 (rat, strain F344/DuCrj, males, in drinking water, site: kidney, lesion: adenocarcinoma, dosed 52 weeks, study length 104 weeks): 35.5 mg/kg/day
- TD50 (rat, strain F344/DuCrj, males, in drinking water, site: kidney, lesion: adenocarcinoma, dosed 104 weeks, study length 104 weeks): 105 mg/kg/day and 224 mg/kg/day
- TD50 (rat, strain F344/DuCrj, males, in drinking water, site: kidney, lesion: adenoma, dosed 26 weeks, study length 104 weeks): 6.67 mg/kg/day
- TD50 (rat, strain F344/DuCrj, males, in drinking water, site: kidney, lesion: adenoma, dosed 39 weeks, study length 104 weeks): 5.57 mg/kg/day
- TD50 (rat, strain F344/DuCrj, males, in drinking water, site: kidney, lesion: adenoma, dosed 52 weeks, study length 52 weeks): 4.98 mg/kg/day
- TD50 (rat, strain F344/DuCrj, males, in drinking water, site: kidney, lesion: adenoma, dosed 52 weeks, study length 104 weeks): 10.1 mg/kg/day
- TD50 (rat, strain F344/DuCrj, males, in drinking water, site: kidney, lesion: adenoma, dosed 104 weeks, study length 104 weeks): 48 mg/kg/day and 35.7 mg/kg/day
- TD50 (rat, strain F344/DuCrj, males, in drinking water, site: kidney, lesion: renal-cell tumor, dosed 104 weeks, study length 104 weeks): 28.9 mg/kg/day
- TD50 (rat, strain F344/DuCrj, males, in drinking water, site: kidney, lesion: several types, types named in the paper, dosed 26 weeks, study length 104 weeks): 6.67 mg/kg/day
- TD50 (rat, strain F344/DuCrj, males, in drinking water, site: kidney, lesion: several types, types named in the paper, dosed 39 weeks, study length 104 weeks): 4.81 mg/kg/day
- TD50 (rat, strain F344/DuCrj, males, in drinking water, site: kidney, lesion: several types, types named in the paper, dosed 52 weeks, study length 104 weeks): 8.32 mg/kg/day
- TD50 (rat, strain F344/DuCrj, males, in drinking water, site: kidney, lesion: several types, types named in the paper, dosed 104 weeks, study length 104 weeks): 28.7 mg/kg/day
- TD50 (rat, strain F344/DuCrj, males, in drinking water, site: liver, lesion: neoplastic nodule, dosed 104 weeks, study length 104 weeks): 53.2 mg/kg/day
- TD50 (rat, strain F344/DuCrj, males, in drinking water, site: peritoneum, lesion: mesothelioma, dosed 26 weeks, study length 104 weeks): 7.84 mg/kg/day
- TD50 (rat, strain F344/DuCrj, males, in drinking water, site: peritoneum, lesion: mesothelioma, dosed 39 weeks, study length 104 weeks): 14 mg/kg/day
- TD50 (rat, strain F344/DuCrj, males, in drinking water, site: peritoneum, lesion: mesothelioma, dosed 52 weeks, study length 52 weeks): 25.6 mg/kg/day
- TD50 (rat, strain F344/DuCrj, males, in drinking water, site: peritoneum, lesion: mesothelioma, dosed 52 weeks, study length 104 weeks): 19.4 mg/kg/day
- TD50 (rat, strain F344/DuCrj, males, in drinking water, site: peritoneum, lesion: mesothelioma, dosed 104 weeks, study length 104 weeks): 12.4 mg/kg/day and 19.5 mg/kg/day
- TD50 (rat, strain F344/DuCrj, males, in drinking water, site: thyroid gland, lesion: follicular-cell adenoma, dosed 104 weeks, study length 104 weeks): 59.5 mg/kg/day
- TD50 (rat, strain F344/DuCrj, males, in drinking water, site: thyroid gland, lesion: follicular-cell tumor, dosed 26 weeks, study length 104 weeks): 11.3 mg/kg/day
- TD50 (rat, strain F344/DuCrj, males, in drinking water, site: thyroid gland, lesion: follicular-cell tumor, dosed 52 weeks, study length 104 weeks): 19.4 mg/kg/day
- TD50 (rat, strain F344/DuCrj, males, in drinking water, site: thyroid gland, lesion: follicular-cell tumor, dosed 104 weeks, study length 104 weeks): 39.8 mg/kg/day and 54.7 mg/kg/day
- TD50 (rat, strain Fischer 344, females, in drinking water, site: any site (literature study), lesion: several types, types named in the paper, dosed 110 weeks, study length 111 weeks): 9.05 mg/kg/day
- TD50 (rat, strain Fischer 344, females, in drinking water, site: kidney, lesion: adenocarcinoma, dosed 110 weeks, study length 111 weeks): 16.4 mg/kg/day
- TD50 (rat, strain Fischer 344, females, in drinking water, site: kidney, lesion: adenoma, dosed 110 weeks, study length 111 weeks): 87.5 mg/kg/day
- TD50 (rat, strain Fischer 344, females, in drinking water, site: kidney, lesion: several types, types named in the paper, dosed 110 weeks, study length 111 weeks): 13.7 mg/kg/day
- TD50 (rat, strain Fischer 344, females, in drinking water, site: thyroid gland, lesion: several types, types named in the paper, dosed 110 weeks, study length 111 weeks): 97.6 mg/kg/day
- TD50 (rat, strain Fischer 344, males, in drinking water, site: kidney, lesion: adenocarcinoma, dosed 110 weeks, study length 111 weeks): 12.6 mg/kg/day
- TD50 (rat, strain Fischer 344, males, in drinking water, site: kidney, lesion: adenoma, dosed 110 weeks, study length 111 weeks): 46.2 mg/kg/day
- TD50 (rat, strain Fischer 344, males, in drinking water, site: kidney, lesion: renal-cell adenoma, dosed 52 weeks, study length 52 weeks): 16.7 mg/kg/day
- TD50 (rat, strain Fischer 344, males, in drinking water, site: kidney, lesion: renal-cell adenoma, dosed 77 weeks, study length 77 weeks): 15.3 mg/kg/day
- TD50 (rat, strain Fischer 344, males, in drinking water, site: kidney, lesion: renal-cell adenoma, dosed 100 weeks, study length 100 weeks): 31.1 mg/kg/day
- TD50 (rat, strain Fischer 344, males, in drinking water, site: kidney, lesion: renal-cell carcinoma, dosed 100 weeks, study length 100 weeks): 62.2 mg/kg/day
- TD50 (rat, strain Fischer 344, males, in drinking water, site: kidney, lesion: several types, types named in the paper, dosed 100 weeks, study length 100 weeks): 20.8 mg/kg/day
- TD50 (rat, strain Fischer 344, males, in drinking water, site: kidney, lesion: several types, types named in the paper, dosed 110 weeks, study length 111 weeks): 9.62 mg/kg/day
- TD50 (rat, strain Fischer 344, males, in drinking water, site: liver, lesion: several types, types named in the paper, dosed 110 weeks, study length 111 weeks): 164 mg/kg/day
- TD50 (rat, strain Fischer 344, males, in drinking water, site: peritoneum, lesion: mesothelioma, dosed 110 weeks, study length 111 weeks): 25.3 mg/kg/day
- TD50 (rat, strain Fischer 344, males, in drinking water, site: thyroid gland, lesion: follicular-cell adenoma, dosed 100 weeks, study length 100 weeks): 35.2 mg/kg/day
- TD50 (rat, strain Fischer 344, males, in drinking water, site: thyroid gland, lesion: follicular-cell carcinoma, dosed 77 weeks, study length 77 weeks): 34.8 mg/kg/day
- TD50 (rat, strain Fischer 344, males, in drinking water, site: thyroid gland, lesion: follicular-cell carcinoma, dosed 100 weeks, study length 100 weeks): 62.9 mg/kg/day
- TD50 (rat, strain Fischer 344, males, in drinking water, site: thyroid gland, lesion: several types, types named in the paper, dosed 77 weeks, study length 77 weeks): 21.8 mg/kg/day
- TD50 (rat, strain Fischer 344, males, in drinking water, site: thyroid gland, lesion: several types, types named in the paper, dosed 100 weeks, study length 100 weeks): 22.2 mg/kg/day
- TD50 (rat, strain Fischer 344, males, in drinking water, site: tunica vaginalis, lesion: mesothelioma, dosed 52 weeks, study length 52 weeks): 36.1 mg/kg/day
- TD50 (rat, strain Fischer 344, males, in drinking water, site: tunica vaginalis, lesion: mesothelioma, dosed 77 weeks, study length 77 weeks): 15.3 mg/kg/day
- TD50 (rat, strain Fischer 344, males, in drinking water, site: tunica vaginalis, lesion: mesothelioma, dosed 100 weeks, study length 100 weeks): 11.1 mg/kg/day

Structure (SMILES): COC(=O)C1=C(C)NC(C)=C(C(=O)OCCN2CCN(C(c3ccccc3)c3ccccc3)CC2)C1c1cccc([N+](=O)[O-])c1 (centres undefined)
- TD50 (mouse, strain ICR, females, in feed, site: liver, lesion: hepatocellular adenoma, dosed 78 weeks, study length 78 weeks): 545 mg/kg/day (inactive)
- TD50 (mouse, strain ICR, females, in feed, site: lung, lesion: alveolar/bronchiolar adenoma, dosed 78 weeks, study length 78 weeks): 438 mg/kg/day (inactive)
- carcinogen call (mouse, strain ICR, males, in feed, site: liver, lesion: hepatocellular adenoma, dosed 78 weeks, study length 78 weeks): negative (inactive)
- carcinogen call (mouse, strain ICR, males, in feed, site: liver, lesion: hepatocellular carcinoma, dosed 78 weeks, study length 78 weeks): negative (inactive)
- carcinogen call (mouse, strain ICR, males, in feed, site: lung, lesion: alveolar/bronchiolar adenoma, dosed 78 weeks, study length 78 weeks): negative (inactive)
- TD50 (rat, strain Charles River CD (Sprague-Dawley), females, in feed, site: liver, lesion: hepatocellular adenoma, dosed 104 weeks, study length 104 weeks): 157 mg/kg/day (inactive)
- carcinogen call (rat, strain Charles River CD (Sprague-Dawley), females, in feed, site: liver, lesion: hepatocellular carcinoma, dosed 104 weeks, study length 104 weeks): negative (inactive)
- TD50 (rat, strain Charles River CD (Sprague-Dawley), males, in feed, site: liver, lesion: hepatocellular adenoma, dosed 104 weeks, study length 104 weeks): 8240 mg/kg/day (inactive)
- TD50 (rat, strain Charles River CD (Sprague-Dawley), males, in feed, site: liver, lesion: hepatocellular carcinoma, dosed 104 weeks, study length 104 weeks): 405 mg/kg/day (inactive)

Structure (SMILES): Nc1nc(/C=C/c2ccc([N+](=O)[O-])o2)no1
- TD50 (mouse, strain Charles River CD1, females, in feed, site: forestomach, lesion: squamous-cell carcinoma, dosed 31 weeks, study length 75 weeks): 105 mg/kg/day
- TD50 (mouse, strain Charles River CD1, females, in feed, site: forestomach, lesion: squamous-cell papilloma, dosed 31 weeks, study length 75 weeks): 1150 mg/kg/day
- TD50 (mouse, strain Charles River CD1, females, in feed, site: lung, lesion: adenoma, dosed 31 weeks, study length 75 weeks): 1010 mg/kg/day
- carcinogen call (mouse, strain Charles River CD1, females, in feed, site: reticuloendothelium, lesion: several types, types named in the paper, dosed 31 weeks, study length 75 weeks): positive
- TD50 (mouse, strain Charles River CD1, females, in feed, site: thymus gland, lesion: lymphoma, dosed 31 weeks, study length 75 weeks): 262 mg/kg/day
- TD50 (mouse, strain Charles River CD1, males, in feed, site: any site (literature study), lesion: several types, types named in the paper, dosed 38 weeks, study length 75 weeks): 29.2 mg/kg/day
- TD50 (mouse, strain Charles River CD1, males, in feed, site: forestomach, lesion: squamous-cell carcinoma, dosed 38 weeks, study length 75 weeks): 130 mg/kg/day
- TD50 (mouse, strain Charles River CD1, males, in feed, site: forestomach, lesion: squamous-cell papilloma, dosed 38 weeks, study length 75 weeks): 514 mg/kg/day
- TD50 (mouse, strain Charles River CD1, males, in feed, site: reticuloendothelium, lesion: several types, types named in the paper, dosed 38 weeks, study length 75 weeks): 492 mg/kg/day
- TD50 (mouse, strain Charles River CD1, males, in feed, site: thymus gland, lesion: lymphoma, dosed 38 weeks, study length 75 weeks): 121 mg/kg/day
